Key:
[1] = target: Cation-independent mannose-6-phosphate receptor (Bos taurus) (UniProt P08169); test: Displacement of pentamannosyl phosphate bovine serum albumin from M6P/IGF2R
[2] = target: Cation-independent mannose-6-phosphate receptor (Bos taurus) (UniProt P08169); test: Displacement of pentamannosyl phosphate bovine serum albumin from M6P/IGF2R relative to M6P

Cation-independent mannose-6-phosphate receptor (Bos taurus), sequence (P08169 whole entry, looked up): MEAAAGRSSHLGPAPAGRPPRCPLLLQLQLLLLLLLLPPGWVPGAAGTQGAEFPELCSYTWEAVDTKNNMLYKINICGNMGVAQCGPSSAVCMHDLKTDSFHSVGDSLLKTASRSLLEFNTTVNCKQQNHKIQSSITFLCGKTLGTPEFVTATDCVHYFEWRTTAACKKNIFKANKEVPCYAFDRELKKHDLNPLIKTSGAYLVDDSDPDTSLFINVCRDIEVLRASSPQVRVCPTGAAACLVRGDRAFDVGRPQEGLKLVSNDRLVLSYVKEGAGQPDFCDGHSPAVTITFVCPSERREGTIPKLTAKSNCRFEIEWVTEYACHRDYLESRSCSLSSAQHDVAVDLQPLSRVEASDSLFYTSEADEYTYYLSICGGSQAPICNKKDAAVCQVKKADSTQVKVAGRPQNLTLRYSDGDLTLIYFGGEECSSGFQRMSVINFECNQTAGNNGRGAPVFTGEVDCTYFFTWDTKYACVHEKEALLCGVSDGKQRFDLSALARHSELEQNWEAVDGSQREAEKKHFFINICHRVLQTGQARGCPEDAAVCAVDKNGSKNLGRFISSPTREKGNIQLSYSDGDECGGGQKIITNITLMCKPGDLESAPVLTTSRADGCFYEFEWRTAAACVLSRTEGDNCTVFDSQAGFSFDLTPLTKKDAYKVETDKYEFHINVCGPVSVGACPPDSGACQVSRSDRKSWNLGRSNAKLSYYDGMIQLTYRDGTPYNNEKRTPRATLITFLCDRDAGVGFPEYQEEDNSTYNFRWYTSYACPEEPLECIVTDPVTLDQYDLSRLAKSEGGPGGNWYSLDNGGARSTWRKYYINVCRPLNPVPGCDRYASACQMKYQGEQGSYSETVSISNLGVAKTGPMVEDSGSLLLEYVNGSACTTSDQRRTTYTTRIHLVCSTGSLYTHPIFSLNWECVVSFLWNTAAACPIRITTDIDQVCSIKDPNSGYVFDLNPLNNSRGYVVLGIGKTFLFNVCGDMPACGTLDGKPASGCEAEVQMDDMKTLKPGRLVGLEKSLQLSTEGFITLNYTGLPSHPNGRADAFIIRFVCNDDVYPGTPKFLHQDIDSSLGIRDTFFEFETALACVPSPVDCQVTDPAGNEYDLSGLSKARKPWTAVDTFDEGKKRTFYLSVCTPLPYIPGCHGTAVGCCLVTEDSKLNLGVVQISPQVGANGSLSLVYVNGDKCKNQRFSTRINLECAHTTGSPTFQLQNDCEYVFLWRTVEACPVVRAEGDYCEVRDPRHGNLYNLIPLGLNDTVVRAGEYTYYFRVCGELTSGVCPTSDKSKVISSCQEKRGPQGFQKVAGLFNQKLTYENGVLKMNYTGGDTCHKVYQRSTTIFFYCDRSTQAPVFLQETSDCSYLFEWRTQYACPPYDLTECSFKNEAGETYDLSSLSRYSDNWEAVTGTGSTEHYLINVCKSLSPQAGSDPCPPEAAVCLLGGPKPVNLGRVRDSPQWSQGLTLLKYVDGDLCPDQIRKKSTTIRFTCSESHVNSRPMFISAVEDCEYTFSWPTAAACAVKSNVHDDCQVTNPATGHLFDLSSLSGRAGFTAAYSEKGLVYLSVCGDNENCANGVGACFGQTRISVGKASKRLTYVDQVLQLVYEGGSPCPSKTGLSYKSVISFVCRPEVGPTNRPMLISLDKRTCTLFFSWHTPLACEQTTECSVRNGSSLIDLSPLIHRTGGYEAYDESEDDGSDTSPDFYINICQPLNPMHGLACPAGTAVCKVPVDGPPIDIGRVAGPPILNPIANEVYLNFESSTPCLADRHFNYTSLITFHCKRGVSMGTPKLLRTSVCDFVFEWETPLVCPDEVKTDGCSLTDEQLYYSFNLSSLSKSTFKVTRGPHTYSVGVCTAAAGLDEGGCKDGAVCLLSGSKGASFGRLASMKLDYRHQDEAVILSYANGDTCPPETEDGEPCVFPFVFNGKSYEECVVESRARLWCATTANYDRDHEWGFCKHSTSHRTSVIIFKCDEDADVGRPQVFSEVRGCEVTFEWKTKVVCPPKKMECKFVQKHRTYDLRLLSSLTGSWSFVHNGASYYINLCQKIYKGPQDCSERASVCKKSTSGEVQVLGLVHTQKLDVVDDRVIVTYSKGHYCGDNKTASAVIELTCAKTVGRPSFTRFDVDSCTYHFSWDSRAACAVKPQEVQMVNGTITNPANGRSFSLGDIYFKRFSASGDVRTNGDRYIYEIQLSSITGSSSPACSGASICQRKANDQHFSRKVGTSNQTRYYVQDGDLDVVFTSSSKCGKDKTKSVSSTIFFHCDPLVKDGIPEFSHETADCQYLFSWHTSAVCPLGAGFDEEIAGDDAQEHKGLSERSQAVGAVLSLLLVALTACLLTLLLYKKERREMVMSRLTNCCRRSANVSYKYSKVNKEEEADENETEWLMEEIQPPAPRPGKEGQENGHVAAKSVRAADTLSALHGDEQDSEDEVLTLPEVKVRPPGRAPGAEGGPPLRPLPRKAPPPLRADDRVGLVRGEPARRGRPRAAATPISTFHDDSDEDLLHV

| SMILES | IC50 [1] [µM] | relative binding affinity (RBA) [2] |
| --- | --- | --- |
| O=P(O)(O)OC[C@H]1OC(O)[C@@H](O)[C@@H](O)[C@@H]1O (stereo not given in full) | 11.5 | – |
| CC(=O)NCCCC[C@H](NC(=O)[C@@H](NC(C)=O)[C@@H](C)O[C@H]1O[C@H](CO)[C@@H](O)[C@H](O)[C@@H]1O[C@H]1O[C@H](COP(=O)(O)O)[C@@H](O)[C@H](O)[C@@H]1O)C(=O)N[C@H](C(N)=O)[C@@H](C)O[C@H]1O[C@H](CO)[C@@H](O)[C@H](O)[C@@H]1O[C@H]1O[C@H](COP(=O)(O)O)[C@@H](O)[C@H](O)[C@@H]1O | 1.8 | 144 |
| O=P(O)(O)OC[C@H]1O[C@H](OCCCCCCCCCCCCO[C@H]2O[C@H](COP(=O)(O)O)[C@@H](O)[C@H](O)[C@@H]2O)[C@@H](O)[C@@H](O)[C@@H]1O | 3.7 | 3.02 |
| CC(=O)N[C@H](C(=O)N[C@@H](CCCCN)C(=O)N[C@H](C(N)=O)[C@@H](C)O[C@H]1O[C@H](CO)[C@@H](O)[C@H](O)[C@@H]1O[C@H]1O[C@H](COP(=O)(O)O)[C@@H](O)[C@H](O)[C@@H]1O)[C@@H](C)O[C@H]1O[C@H](CO)[C@@H](O)[C@H](O)[C@@H]1O[C@H]1O[C@H](COP(=O)(O)O)[C@@H](O)[C@H](O)[C@@H]1O | 20 | 13 |
| O=P(O)(O)OC[C@H]1O[C@@H](O)[C@H](O)[C@@H](O)[C@@H]1O | > 10 | – |
| CC(=O)N[C@H](C(=O)N[C@@H](CCCCNC(=O)c1ccccc1N)C(=O)N[C@H](C(N)=O)[C@@H](C)O[C@H]1O[C@H](CO)[C@@H](O)[C@H](O)[C@@H]1O[C@H]1O[C@H](COP(=O)(O)O)[C@@H](O)[C@H](O)[C@@H]1O)[C@@H](C)O[C@H]1O[C@H](CO)[C@@H](O)[C@H](O)[C@@H]1O[C@H]1O[C@H](COP(=O)(O)O)[C@@H](O)[C@H](O)[C@@H]1O | 0.09 | 2890 |
